# In patent US20260317344A1, “EGFR INHIBITORS FOR TREATING DISEASE” (BLOSSOMHILL THERAPEUTICS, INC., priority 2023, published 2026):
# Experiments:
# EGFR (L858R) = EGFR (L858R) (Homo sapiens, UniProt P00533, L858R); assay: HotSpot radiometric kinase assay, inhibition of EGFR L858R mutant; format: biochemical; conditions: 33P ATP, room temperature, 120 m
# Summary of the method: (§1)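 Radiometric filter-binding format: ATP plus 33P-ATP ([…]) was added about 20 min after compound to kinase and substrate in HEPES pH 7.5 buffer with Mg2+, EGTA, Brij35, BSA, vanadate, DTT and 1% DMSO. After 120 min at room temperature, reactions were spotted on P81 paper and washed in phosphoric acid; IC50 values fitted.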
# EGFR (L858R/T790M) = EGFR (L858R/T790M) (Homo sapiens, UniProt P00533, L858R/T790M); assay: HotSpot radiometric kinase assay, inhibition of EGFR L858R/T790M mutant; format: biochemical; conditions: 33P ATP, room temperature, 120 m
# Summary of the method: (§2)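 Kinase/substrate pairs in 20 mM HEPES pH 7.5, 10 mM MgCl2, 1 mM EGTA, 0.02% Brij35, 0.02 mg/ml BSA, 0.1 mM Na3VO4, 2 mM DTT, 1% DMSO, preincubated ~20 min with compound. Reaction started with ATP/33P-ATP ([…]), run 120 min at room temperature; phosphorylation read by P81 filter binding, IC50 from curve fits.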
# EGFR (L858R/T790M/C797S) = EGFR (L858R/T790M/C797S) (Homo sapiens, UniProt P00533, C797S/L858R/T790M); assay: HotSpot radiometric kinase assay, inhibition of EGFR L858R/T790M/C797S mutant; format: biochemical; conditions: 33P ATP, room temperature, 120 m
# Summary of the method: as §2
# EGFR (D746-750) = EGFR (D746-750) (Homo sapiens, UniProt P00533, DEL746-750); assay: HotSpot radiometric kinase assay, inhibition of EGFR 746-750 mutant; format: biochemical; conditions: 33P ATP, room temperature, 120 m
# Summary of the method: as §2
# EGFR (D746-750/C797S) = EGFR (D746-750/C797S) (Homo sapiens, UniProt P00533, C797S/DEL746-750); assay: HotSpot radiometric kinase assay, inhibition of EGFR 746-750/C797S mutant; format: biochemical; conditions: 33P ATP, room temperature, 120 m
# Chain of EGFR (D746-750/C797S) (P00533 with tags, fused parts or gaps DEL746-750/C797S): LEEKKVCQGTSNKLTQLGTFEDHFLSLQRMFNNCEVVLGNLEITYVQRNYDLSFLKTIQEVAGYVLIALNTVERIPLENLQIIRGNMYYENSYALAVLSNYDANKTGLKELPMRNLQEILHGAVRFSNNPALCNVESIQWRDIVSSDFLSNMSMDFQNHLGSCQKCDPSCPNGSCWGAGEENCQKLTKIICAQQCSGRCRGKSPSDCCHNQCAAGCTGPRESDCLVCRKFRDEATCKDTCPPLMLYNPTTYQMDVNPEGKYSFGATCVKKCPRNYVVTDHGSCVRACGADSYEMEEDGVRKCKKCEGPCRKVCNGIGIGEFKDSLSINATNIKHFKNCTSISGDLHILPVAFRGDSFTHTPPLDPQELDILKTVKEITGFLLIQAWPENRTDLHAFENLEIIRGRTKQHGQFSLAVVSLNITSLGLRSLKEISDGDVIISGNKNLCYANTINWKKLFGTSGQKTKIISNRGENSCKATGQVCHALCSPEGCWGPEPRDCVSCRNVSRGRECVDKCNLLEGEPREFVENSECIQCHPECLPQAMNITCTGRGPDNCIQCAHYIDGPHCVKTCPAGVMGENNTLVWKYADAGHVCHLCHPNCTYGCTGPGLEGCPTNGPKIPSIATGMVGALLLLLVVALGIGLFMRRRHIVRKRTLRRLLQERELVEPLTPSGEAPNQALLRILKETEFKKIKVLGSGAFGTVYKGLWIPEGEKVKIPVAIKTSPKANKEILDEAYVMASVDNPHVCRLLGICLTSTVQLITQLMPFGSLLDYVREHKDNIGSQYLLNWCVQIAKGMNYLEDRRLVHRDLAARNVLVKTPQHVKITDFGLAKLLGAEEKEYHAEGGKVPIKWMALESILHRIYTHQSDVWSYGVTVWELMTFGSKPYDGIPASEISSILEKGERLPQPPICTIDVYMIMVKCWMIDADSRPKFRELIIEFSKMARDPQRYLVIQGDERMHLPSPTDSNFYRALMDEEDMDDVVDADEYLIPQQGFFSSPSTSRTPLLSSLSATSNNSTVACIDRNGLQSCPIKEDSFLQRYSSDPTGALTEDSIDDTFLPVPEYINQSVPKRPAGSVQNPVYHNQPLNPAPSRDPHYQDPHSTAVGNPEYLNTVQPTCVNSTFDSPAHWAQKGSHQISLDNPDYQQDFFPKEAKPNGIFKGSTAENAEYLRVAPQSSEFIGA
# Summary of the method: as §2
# EGFR (D770_N771insNPG) = EGFR (D770_N771insNPG) (Homo sapiens, UniProt P00533, INS770NPG); assay: HotSpot radiometric kinase assay, inhibition of EGFR (D770_N771insNPG) mutant; format: biochemical; conditions: 33P ATP, room temperature, 120 m
# Chain of EGFR (D770_N771insNPG) (P00533 with tags, fused parts or gaps INS770NPG limits assumed): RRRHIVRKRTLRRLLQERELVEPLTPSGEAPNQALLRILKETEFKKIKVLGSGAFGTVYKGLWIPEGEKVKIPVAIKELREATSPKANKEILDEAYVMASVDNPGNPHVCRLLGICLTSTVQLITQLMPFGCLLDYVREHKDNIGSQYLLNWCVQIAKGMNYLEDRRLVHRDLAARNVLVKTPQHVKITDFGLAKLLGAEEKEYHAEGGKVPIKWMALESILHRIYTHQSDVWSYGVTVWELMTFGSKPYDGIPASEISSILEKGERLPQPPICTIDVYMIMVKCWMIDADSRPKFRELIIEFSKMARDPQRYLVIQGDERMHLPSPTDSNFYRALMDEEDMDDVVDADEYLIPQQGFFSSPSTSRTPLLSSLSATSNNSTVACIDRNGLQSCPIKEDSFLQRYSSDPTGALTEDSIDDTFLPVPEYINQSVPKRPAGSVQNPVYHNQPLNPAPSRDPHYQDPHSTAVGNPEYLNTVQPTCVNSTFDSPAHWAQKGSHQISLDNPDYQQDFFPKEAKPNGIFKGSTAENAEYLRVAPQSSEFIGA
# Summary of the method: as §2
# EGFR WT = EGFR WT (Homo sapiens, UniProt P00533); assay: HotSpot radiometric kinase assay, inhibition of EGFR WT; format: biochemical; conditions: 33P ATP, room temperature, 120 m
# Chain of EGFR WT (P00533 25-1210): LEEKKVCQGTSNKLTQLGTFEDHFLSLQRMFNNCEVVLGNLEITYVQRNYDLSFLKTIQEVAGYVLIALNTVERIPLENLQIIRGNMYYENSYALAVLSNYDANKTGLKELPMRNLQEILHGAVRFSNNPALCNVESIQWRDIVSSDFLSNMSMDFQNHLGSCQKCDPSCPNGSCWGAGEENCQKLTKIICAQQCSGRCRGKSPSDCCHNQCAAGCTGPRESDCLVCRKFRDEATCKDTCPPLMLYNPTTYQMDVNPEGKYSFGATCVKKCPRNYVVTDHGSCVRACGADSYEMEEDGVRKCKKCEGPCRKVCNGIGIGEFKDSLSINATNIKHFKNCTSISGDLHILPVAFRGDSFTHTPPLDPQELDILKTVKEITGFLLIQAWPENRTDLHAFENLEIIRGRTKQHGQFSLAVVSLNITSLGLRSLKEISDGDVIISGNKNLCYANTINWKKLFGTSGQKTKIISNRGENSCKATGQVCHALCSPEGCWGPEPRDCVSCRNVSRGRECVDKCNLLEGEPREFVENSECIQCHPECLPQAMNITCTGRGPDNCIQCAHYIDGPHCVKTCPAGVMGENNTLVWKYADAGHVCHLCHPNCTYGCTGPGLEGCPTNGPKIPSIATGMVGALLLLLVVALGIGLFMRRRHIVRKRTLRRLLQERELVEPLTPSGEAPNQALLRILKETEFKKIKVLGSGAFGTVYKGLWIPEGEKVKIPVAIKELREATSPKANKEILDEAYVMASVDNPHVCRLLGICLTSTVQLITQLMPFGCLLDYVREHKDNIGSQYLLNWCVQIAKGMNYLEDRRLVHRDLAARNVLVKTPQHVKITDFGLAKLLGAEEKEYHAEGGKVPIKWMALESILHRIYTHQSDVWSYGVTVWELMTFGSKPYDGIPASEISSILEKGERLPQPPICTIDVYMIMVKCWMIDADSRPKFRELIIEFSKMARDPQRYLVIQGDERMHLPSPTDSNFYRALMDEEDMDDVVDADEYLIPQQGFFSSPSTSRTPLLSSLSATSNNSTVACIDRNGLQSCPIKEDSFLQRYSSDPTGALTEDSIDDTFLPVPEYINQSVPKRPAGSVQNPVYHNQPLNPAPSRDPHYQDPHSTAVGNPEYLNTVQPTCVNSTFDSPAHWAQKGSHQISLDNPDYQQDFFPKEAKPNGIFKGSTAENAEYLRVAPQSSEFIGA
# Summary of the method: as §1
# [1] = biological target: T1, pEGFR, PC-9 cells (d746-750 EGFR) (Homo sapiens, UniProt P00533, DEL746-750); assay: Cellular EGFR phosphorylation assay (LANCE Ultra TR-FRET) in PC-9 cells; format: cell-based; conditions: 4 hours at 37° C., read-out: PC-9 pEGFR IC50
# T1 construct: pEGFR (Tyr1068) TR-FRET
# Summary of the method: (§3)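 PC-9 and NCI-H1975 cells (50 thousand/well) or A431 cells (30 thousand/well) treated next day for 4 h at 37° C with a 9-dose 3-fold titration; A431 stimulated with 40 ng/mL EGF for the final 10 min. Lysate phospho-EGFR (Tyr1068) read by LANCE Ultra TR-FRET; IC50 derived.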
# [2] = biological target: T2, pEGFR, NCI-H1975 cells (L858R/T790M EGFR) (Homo sapiens, UniProt P00533, L858R/T790M); assay: Cellular EGFR phosphorylation assay (LANCE Ultra TR-FRET) in NCI-H1975 cells; format: cell-based; conditions: 4 hours at 37° C., read-out: H1975 pEGFR IC50
# T2 construct: pEGFR (Tyr1068) TR-FRET
# Summary of the method: as §3
# [3] = biological target: T3, pEGFR, A431 cells (wildtype EGFR) (Homo sapiens, UniProt P00533); assay: Cellular EGFR phosphorylation assay (LANCE Ultra TR-FRET) in A431 cells; format: cell-based; conditions: 4 hours at 37° C., 40 ng/mL EGF for the final 10 minutes, read-out: A431 pEGFR IC50
# T3 construct: pEGFR (Tyr1068) TR-FRET
# T3 sequence (P00533 25-1210): as above
# Summary of the method: as §3
# PC-9 cells = assay: 5-Day CellTiter Glo (CTG) cell proliferation assay, PC-9; format: cell-based; conditions: Homo sapiens; PC-9 cells (d746-750 EGFR), 5-day CTG proliferation, 120 hours; read-out: PC-9 IC50
# Summary of the method: (§4)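 Luminescent ATP signal (CellTiter-Glo 2.0) after 120 hours of compound exposure gave IC50 values. PC-9 and HCC827 harbour EGFR d746-750; NCI-H1975 harbours L858R/T790M.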
# NCI-H1975 cells = assay: 5-Day CellTiter Glo (CTG) cell proliferation assay, NCI-H1975; format: cell-based; conditions: Homo sapiens; NCI-H1975 cells (L858R/T790M EGFR), 5-day CTG proliferation, 120 hours; read-out: H1975 IC50
# Summary of the method: as §4
# HCC827 cells = assay: 5-Day CellTiter Glo (CTG) cell proliferation assay, HCC827; format: cell-based; conditions: Homo sapiens; HCC827 cells (d746-750 EGFR), 5-day CTG proliferation, 120 hours; read-out: HCC827 IC50
# Summary of the method: as §4
# [4] = tested on: BaF3 cells with engineered EGFR L858R/T790M/C797S; assay: 3-Day CellTiter Glo (CTG) cell proliferation assay, BaF3 EGFR L858R/T790M/C797S; format: cell-based; conditions: Mus musculus, 3-day CTG proliferation, 72 hours
# Summary of the method: (§5)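 Luminescent ATP read-out (CellTiter-Glo 2.0) after 72 h compound exposure gives IC50 values. BaF3 transgenic cells, one thousand per well, received a nine-dose series and were kept at 37 °C under 5% CO2.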
# [5] = tested on: BaF3 cells with engineered EGFR L858R/C797S; assay: 3-Day CellTiter Glo (CTG) cell proliferation assay, BaF3 EGFR L858R/C797S; format: cell-based; conditions: Mus musculus, 3-day CTG proliferation, 72 hours
# Summary of the method: as §5
# [6] = tested on: BaF3 cells with engineered EGFR d746-750/T790M; assay: 3-Day CellTiter Glo (CTG) cell proliferation assay, BaF3 EGFR d746-750/T790M; format: cell-based; conditions: Mus musculus; BaF3 EGFR d746-750/T790M cells, 3-day CTG proliferation, 72 hours
# Summary of the method: as §5
Compound,IC50 (EGFR (L858R)) [nM],IC50 (EGFR (L858R/T790M)) [nM],IC50 (EGFR (L858R/T790M/C797S)) [nM],IC50 (EGFR (D746-750)) [nM],IC50 (EGFR (D746-750/C797S)) [nM],IC50 (EGFR (D770_N771insNPG)) [nM],IC50 (EGFR WT) [nM],IC50 [1] [nM],IC50 [2] [nM],IC50 [3] [nM],IC50 (PC-9 cells) [nM],IC50 (NCI-H1975 cells) [nM],IC50 (HCC827 cells) [nM],IC50 [4] [nM],IC50 [5] [nM],IC50 [6] [nM]
"CCOc1nn(CCO)c2c1/C=C/c1n[nH]c3cnc(cc13)-c1c(C)nn(C)c1OC[C@H](C)N(CC)C2 [Ex. 16, 2-[(11S,17E)-16-ethoxy-12-ethyl-6,8,11-trimethyl-2,8,10,11,12,13-hexahydro-14H-5,3-(azenometheno)tripyrazolo[3,4-f:3′,4′-j:4″,3″-n][1,4]oxazacyclopentadecin-14-yl]ethan-1-ol]",0.62,1.38,4.57,0.66,1.43,0.68,0.45,4.37,5.22,19.8,5.56,27.1,0.88,1.93,0.34,0.66
"CCOc1nn(CCO)c2c1/C=C/c1n[nH]c3cnc(cc13)-c1c(C)nn(C)c1O[C@H](C)CN(CC)C2 [Ex. 17, 2-[(10R,17E)-16-ethoxy-12-ethyl-6,8,10-trimethyl-2,8,10,11,12,13-hexahydro-14H-5,3-(azenometheno)tripyrazolo[3,4-f:3′,4′-j:4″,3″-n][1,4]oxazacyclopentadecin-14-yl]ethan-1-ol]",0.52,0.97,2.37,0.31,1,0.59,0.36,1.85,2.63,14.3,2.01,17.5,0.37,1.14,0.22,0.34
"CCOc1nn(CCO)c2c1/C=C/c1n[nH]c3cnc(cc13)-c1c(C)nn(C)c1OC[C@@H](C)N(CC)C2 [Ex. 18, 2-[(11R,17E)-16-ethoxy-12-ethyl-6,8,11-trimethyl-2,8,10,11,12,13-hexahydro-14H-5,3-(azenometheno)tripyrazolo[3,4-f:3′,4′-j:4″,3″-n][1,4]oxazacyclopentadecin-14-yl]ethan-1-ol]",0.51,1.11,4.08,0.45,1.32,0.59,0.43,3.24,8.91,15.6,2.14,19.5,0.53,2.46,0.29,1.44
"Cc1nn(C)c2c1-c1cc3c(n[nH]c3cn1)/C=C/c1c(OCC#N)nn(CCO)c1CN(C)C[C@H](C)O2 [Ex. 22, {[(10S,17E)-14-(2-hydroxyethyl)-6,8,10,12-tetramethyl-2,10,11,12,13,14-hexahydro-8H-5,3-(azenometheno)tripyrazolo[3,4-f:3′,4′-j:4″,3″-n][1,4]oxazacyclopentadecin-16-yl]oxy}acetonitrile]",1.45,0.73,0.52,0.3,1.27,0.28,0.41,5.67,6.81,67.5,7.12,19.8,0.87,4.39,0.56,5.77
"CCN1Cc2c(c(OCC#N)nn2CCO)/C=C/c2n[nH]c3cnc(cc23)-c2c(C)nn(C)c2O[C@@H](C)C1 [Ex. 23, {[(10S,17E)-12-ethyl-14-(2-hydroxyethyl)-6,8,10-trimethyl-2,10,11,12,13,14-hexahydro-8H-5,3-(azenometheno)tripyrazolo[3,4-f:3′,4′-j:4″,3″-n][1,4]oxazacyclopentadecin-16-yl]oxy}acetonitrile]",1.02,0.6,0.47,0.36,1.01,0.29,0.31,3.42,5.84,43.1,2.91,10,0.41,2.69,0.43,3.77
"CCOc1nn([C@@H](C)CO)c2c1/C=C/c1n[nH]c3cnc(cc13)-c1c(C)nn(C)c1O[C@H](C)CN(CC)C2 [Ex. 24, (2S)-2-[(10R,17E)-16-ethoxy-12-ethyl-6,8,10-trimethyl-2,8,10,11,12,13-hexahydro-14H-5,3-(azenometheno)tripyrazolo[3,4-f:3′,4′-j:4″,3″-n][1,4]oxazacyclopentadecin-14-yl]propan-1-ol]",1.68,0.94,0.57,0.51,1.08,0.62,0.5,1.5,1.6,22.4,0.47,1.26,0.27,0.78,0.11,0.41
